Data: patent US5989846A, “Assays to identify inducers of plant defense resistance” (Rutgers, The State University of New Jersey, priority 1995, dated 1999)
Structures can show the parent of a compound that is named as a salt. Where two headings read alike, the source gives them in different places.

Experiments:
SABP = system: SABP; set-up: concentration or dose not given beside the values; conditions: Table 6; previously published data (Chen et al. 1993); cited from earlier work
[1] = biological target: T1, catalase activity of SABP (Nicotiana tabacum, UniProt P49319); test: Catalase activity of highly purified SABP (luminol method); type: biochemical, tobacco; conditions: for inhibition at 1000 µM: 0.05 h, 1 mM SA or analogue, 1 mM H2O2, 500 ng highly purified SABP; for Inhibition of the catalase activity of SABP (in words): compared with SA
T1 sequence (P49319 1-492): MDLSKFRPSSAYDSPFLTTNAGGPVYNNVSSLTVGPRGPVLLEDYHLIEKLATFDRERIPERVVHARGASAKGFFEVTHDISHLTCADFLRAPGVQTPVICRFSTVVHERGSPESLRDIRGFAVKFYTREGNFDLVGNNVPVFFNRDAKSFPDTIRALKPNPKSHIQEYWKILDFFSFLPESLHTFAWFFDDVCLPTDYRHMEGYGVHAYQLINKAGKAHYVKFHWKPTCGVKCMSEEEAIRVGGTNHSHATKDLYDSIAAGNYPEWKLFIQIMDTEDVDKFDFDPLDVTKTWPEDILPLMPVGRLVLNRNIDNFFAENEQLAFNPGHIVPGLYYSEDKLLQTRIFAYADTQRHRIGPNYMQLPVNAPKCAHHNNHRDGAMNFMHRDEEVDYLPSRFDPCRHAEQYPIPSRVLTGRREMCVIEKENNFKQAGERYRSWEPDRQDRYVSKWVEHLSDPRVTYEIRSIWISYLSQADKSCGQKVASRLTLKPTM
Description: Aliquots (50 μl) were removed from the assay mixture at 30 second intervals to assay for amount of H2 O2 remaining using the luminol method as has been described by Warm and Laties, Phytochem. […] The tube was placed in the measuring chamber and assay was initiated with automatic injection into the mixture of 100 μl of 0.5 mM K3 Fe(CN)6 in 0.2N NH4 OH, pH 9.5. Measurements were integrated over 5 second periods. H2 O2 was calculated from the standard curve constructed with known amounts of H2 O2. Rate constants of SABP catalase activity in the presence or absence of SA or its analogues were then calculated based on a first-order mechanism.

[2] = system: salicylic acid binding protein; test: Competitive [14C] salicylic acid binding assay (spin-column); set-up: species or system tobacco; conditions: [14C] salicylic acid 20 μM; for Inhibition (%) 2×: 40 μM (2×) unlabeled competitor; for Inhibition (%) 10×: 200 μM (10×) unlabeled competitor
Description: The 180 kDa native binding protein isolated was tested for binding affinity and specificity. A competitive assay was established using salicylic acid binding protein fractionated from plants as previously described.
A key element during the characterization and the purification process is a simple, inexpensive, sensitive and reliable method for determining the salicylic acid binding activity. For this purpose, spin-column exclusion chromatography was used to separate the bound [^14 C] salicylic acid (excluded) from the bulk free salicylic acid (included). Specifically, a 1.5 ml Eppendorf tube was punctured at the tip with a 20-gauge needle and a small amount of glass wool was added to cover the small hole. The tube was then filled with Bio-Gel P-6DG desalting gel (exclusion limit 6 KDa; purchased from Bio-Rad, Melville, N.Y.) which have been swollen in water. An alternative gel is Sephadex G-25 fine (from Pharmacia, Piscataway, N.J.). Excess liquid in the gel was removed and centrifuged for 5 minutes at full speed in a Dynamic centrifuge (Becton Dickinson). The process was then repeated several times until the gel filled the tube. After incubation of an aliquot of the extract or column fractions for 2 hr at 4° C. with 5 μM-20 μM [^14 C salicylic acid] (specifically radioactivity 55 Ci/mol; purchased from New England Nuclear), 150 μl of proteins binding sample was loaded onto the tube column, which was then rapidly centrifuged for 2 minutes at full speed and the solution of proteins and bound [^14 C-salicylic acid] that was excluded from the gel was collected into another tube that had been placed under the tube column during the centrifugation. One hundred microliters of this solution was then used to determine the amount of bound salicylic acid. […] For example, to determine the inhibitory effect of various salicylic acid analogues on salicylic acid binding activity, these individual analogues were included in the binding mixture containing both the protein and [^14 C] salicylic acid during the 2 hr incubation, and resulting binding activity was determined in comparison to the activity in the absence of these analogues. Likewise, to determine the effect of pH and antioxidants on the binding activity the protein sample was either dialyzed against a large volume of buffers with different pH or antioxidants were added to the protein sample to various concentrations and the resulting binding activities were then determined with the spin-column method in comparison with the activity determined in the absence of these treatments.

[3] = system: resistance or PR gene expression; set-up: key: ++: indicates a high level of biological activity; +: indicates a lower level of biological activity; ±: indicates low, but detectable biological activity in some assays; -: indicates no biological activity; conditions: Table 3; values reported in literature; cited from earlier work
ascorbate peroxidase = test: Ascorbate peroxidase activity in tobacco leaf extracts; type: biochemical, Nicotiana tabacum cv. Xanthi nc; conditions: 200 μM compound, corrected for quenching of auto oxidation
Description: […] Two grams of leaves from 6-8 week old tobacco plants (Nicotiana tabacum cv. Xanthi nc) grown at 22° C. in a 14 hr light cycle were homogenized under liquid nitrogen using a pestle and mortar.
To obtain ascorbate peroxidase-containing extracts, the soluble proteins were extracted by grinding the powder in 10 ml of 100 mM potassium phosphate, pH 7, containing […] ascorbate and 1% (weight/volume) polyvinylpyrrolidone, with a small amount of quartz sand. The homogenate was centrifuged at 14,000 g for 5 min. […] The pellet resulting from centrifugation (14,000 g, 15 min.) was resuspended in extraction buffer (100 mM potassium phosphate, pH7, containing 0.25 mM ascorbate and 1% (weight/volume) polyvinylpyrrolidone) and desalted on a PD-10 column (Pharmacia) equilibrated with 50 mM potassium phosphate, pH 7, containing 100 μM ascorbate. The extract was used immediately. […] The amount of protein per assay was 30-50 μg. Oxidation of ascorbate was followed by the decrease in the absorbance at 290 nm.
The values illustrated in FIG. 17 are the mean values for three replicated assays.

TMV = type: in vivo, tobacco mosaic virus
Description: The SA/SAG valves are given in micrograms per gram fresh weight of leaf tissue and represent averages of values from 3-6 treated plants at 6 days past injection. […] For determination of reduction in lesion size, longitudinal halves of 2 leaves on 3-6 plants were injection with chemicals, and six days later the entire leaf was infected with TMV. Twenty lesions were measured on each half of the leaf seven days post infection; the values given represent the average percent reduction in lesion diameter in the treated leaf half compared to the untreated half.

[4] = system: salicylic acid binding protein; test: Binding of 14C-labelled ligands by partially purified SABP; set-up: species or system tobacco; conditions: for [14C] radioactivity bound, with protein / [14C] radioactivity bound, without protein: 50 μM ligand, n = 3, SD; for [14C] radioactivity bound, with protein: 3 mg/ml partially purified SABP; for [14C] radioactivity bound, without protein: no protein
Description: Binding was assayed with 3 mg/ml of the
A key element during the characterization and the purification process is a simple, inexpensive, sensitive and reliable method for determining the salicylic acid binding activity. For this purpose, spin-column exclusion chromatography was used to separate the bound [^14 C] salicylic acid (excluded) from the bulk free salicylic acid (included). Specifically, a 1.5 ml Eppendorf tube was punctured at the tip with a 20-gauge needle and a small amount of glass wool was added to cover the small hole. The tube was then filled with Bio-Gel P-6DG desalting gel (exclusion limit 6 KDa; purchased from Bio-Rad, Melville, N.Y.) which have been swollen in water. An alternative gel is Sephadex G-25 fine (from Pharmacia, Piscataway, N.J.). Excess liquid in the gel was removed and centrifuged for 5 minutes at full speed in a Dynamic centrifuge (Becton Dickinson). The process was then repeated several times until the gel filled the tube. After incubation of an aliquot of the extract or column fractions for 2 hr at 4° C. with 5 μM-20 μM [^14 C salicylic acid] (specifically radioactivity 55 Ci/mol; purchased from New England Nuclear), 150 μl of proteins binding sample was loaded onto the tube column, which was then rapidly centrifuged for 2 minutes at full speed and the solution of proteins and bound [^14 C-salicylic acid] that was excluded from the gel was collected into another tube that had been placed under the tube column during the centrifugation. One hundred microliters of this solution was then used to determine the amount of bound salicylic acid. With this binding assay, characterization of the salicylic acid binding protein can be carried out very rapidly. For example, to determine the inhibitory effect of various salicylic acid analogues on salicylic acid binding activity, these individual analogues were included in the binding mixture containing both the protein and [^14 C] salicylic acid during the 2 hr incubation, and resulting binding activity was determined in comparison to the activity in the absence of these analogues. Likewise, to determine the effect of pH and antioxidants on the binding activity the protein sample was either dialyzed against a large volume of buffers with different pH or antioxidants were added to the protein sample to various concentrations and the resulting binding activities were then determined with the spin-column method in comparison with the activity determined in the absence of these treatments.

Compound | Inhibition (%) [14C]SA binding (SABP) [%] | inhibition at 1000 µM [1] [%] | Inhibition (%) 2× [2] [%] | Inhibition (%) 10× [2] [%] | Biological activity [3] | other results
O=C(O)c1ccc(O)cc1 [4-Hydroxybenzoic acid] | -2 | 4.1 | 1 | -2 | - | % Inhibition of ascorbate peroxidase (ascorbate peroxidase): 0 ± 6%
O=C(O)c1ccc(O)cc1O [2,4-Dihydroxybenzoic acid] | -4 | 5.2 | -1 | -2 | - | 
O=C(O)c1c(O)cccc1O [2,6-Dihydroxybenzoic acid] | 92 | 91.3 | 51 | 91 | ++ | Inhibition of the catalase activity of SABP (in words) [1]: somewhat stronger; % Inhibition of ascorbate peroxidase (ascorbate peroxidase): 72 ± 8%
[Ba+2].[Cl-].[Cl-] [BaCl2, barium chloride] |  |  |  |  |  | Reduction in lesion size (%) (TMV; in vivo): 60%
CCC(N)C(=O)O (stereo not drawn) [α-amino butyric acid] |  |  |  |  |  | Reduction in lesion size (%) (TMV; TMV infection six days after injection, lesions measured seven days post infection, treated vs untreated leaf half): 63%
Cc1ncc(C[n+]2csc(CCO)c2C)c(N)n1 [thiamine-HCl] |  |  |  |  |  | Reduction in lesion size (%) (TMV; in vivo): 71%
[Acetyl-^14 C] acetylsalicylic acid |  |  |  |  |  | [14C] radioactivity bound, with protein [4]: 96 ± 10 dpm/100 μl; [14C] radioactivity bound, without protein [4]: 104 ± 9 dpm/100 μl
CC(=O)Oc1ccccc1C(=O)O [Acetylsalicylic acid] | 48 | 53.6 | 25 | 57 | ++ | Inhibition of the catalase activity of SABP (in words) [1]: weaker than SA; Binding by the salicylic acid binding protein ([4]; conclusion from Table 4): not actually bound
O=C(O)c1ccc(O)c(O)c1 [3,4-Dihydroxybenzoic acid] | 0 | 5.1 |  |  |  | 
O=C(O)[14c]1ccccc1O [[^14 C] salicylic acid] |  |  |  |  |  | [14C] radioactivity bound, with protein [4]: 989 ± 78 dpm/100 μl; [14C] radioactivity bound, without protein [4]: 89 ± 7 dpm/100 μl
CC(=O)Oc1ccccc1[14C](=O)O [[carboxyl-^14 C] acetylsalicylic acid] |  |  |  |  |  | [14C] radioactivity bound, with protein [4]: 397 ± 25 dpm/100 μl; [14C] radioactivity bound, without protein [4]: 112 ± 10 dpm/100 μl
O=C(O)c1cc(O)ccc1O [2,5-Dihydroxybenzoic acid] | 1 | 3.2 | 1 | -1 | - | 
O=C(O)c1cccc(O)c1O [2,3-Dihydroxybenzoic acid] | 9 | 15.3 | 1 | 10 | ± | Inhibition of the catalase activity of SABP (in words) [1]: poor inhibitor
